Values quoted from earlier work as cited in patent publication US10076117B2, “Pesticide formulation comprising a water soluble active ingredient and a penetration enhancer and use of the same” (ROTAM AGROCHEM INTERNATIONAL COMPANY LIMITED, priority 2014, dated 2018).

Conditions: water

Question: With `COP(=O)(NC(C)=O)SC` (stereo not shown) [acephate] as the compound, how does the solubility read?
Answer: 650 g in 1 L of water
